Source: paper PMC8541633, “A Novel Statin Compound from Monacolin J Produced Using CYP102A1-Catalyzed Regioselective C-Hydroxylation” (Pharmaceuticals, 2021)

Experiments:
HMG-CoA reductase = molecular target: T1, HMG-CoA reductase (Homo sapiens, UniProt P04035); experiment: HMG-CoA reductase assay kit (Sigma-Aldrich), spectrophotometry at […] nm; assay type: biochemical
T1 construct: gene HMGCR
T1 sequence (P04035 1-888): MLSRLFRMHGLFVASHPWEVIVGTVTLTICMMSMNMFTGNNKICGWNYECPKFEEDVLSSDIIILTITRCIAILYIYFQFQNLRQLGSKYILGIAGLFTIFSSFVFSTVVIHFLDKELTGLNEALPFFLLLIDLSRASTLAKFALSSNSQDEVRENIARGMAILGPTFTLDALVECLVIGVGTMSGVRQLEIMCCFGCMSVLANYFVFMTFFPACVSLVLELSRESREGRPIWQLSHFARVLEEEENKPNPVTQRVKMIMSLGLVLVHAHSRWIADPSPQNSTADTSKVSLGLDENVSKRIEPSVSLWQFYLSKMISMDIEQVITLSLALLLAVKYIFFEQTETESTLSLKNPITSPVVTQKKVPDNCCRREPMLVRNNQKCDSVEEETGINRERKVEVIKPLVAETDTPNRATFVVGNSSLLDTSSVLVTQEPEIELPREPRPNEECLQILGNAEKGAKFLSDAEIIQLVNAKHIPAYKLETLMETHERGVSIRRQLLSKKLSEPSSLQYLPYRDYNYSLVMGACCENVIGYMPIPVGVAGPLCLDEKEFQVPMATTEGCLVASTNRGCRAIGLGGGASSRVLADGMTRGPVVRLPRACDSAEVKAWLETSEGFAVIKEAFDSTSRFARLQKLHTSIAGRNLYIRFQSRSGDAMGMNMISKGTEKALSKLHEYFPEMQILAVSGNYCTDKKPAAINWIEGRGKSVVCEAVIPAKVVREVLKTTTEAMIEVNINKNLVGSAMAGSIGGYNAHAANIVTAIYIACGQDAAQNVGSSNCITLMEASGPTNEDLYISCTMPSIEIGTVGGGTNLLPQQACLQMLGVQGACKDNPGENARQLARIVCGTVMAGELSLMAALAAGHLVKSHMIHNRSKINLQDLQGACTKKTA

CYP3A4 = molecular target: T2, CYP3A4 (Homo sapiens, UniProt P08684); experiment: hydroxylation by recombinant CYP3A4 membranes, HPLC and LC-MS (turnover rate); assay type: biochemical
T2 construct: recombinant, E. coli membrane fractions; with rat NADPH-P450 reductase (CPR)
T2 sequence (P08684 2-503): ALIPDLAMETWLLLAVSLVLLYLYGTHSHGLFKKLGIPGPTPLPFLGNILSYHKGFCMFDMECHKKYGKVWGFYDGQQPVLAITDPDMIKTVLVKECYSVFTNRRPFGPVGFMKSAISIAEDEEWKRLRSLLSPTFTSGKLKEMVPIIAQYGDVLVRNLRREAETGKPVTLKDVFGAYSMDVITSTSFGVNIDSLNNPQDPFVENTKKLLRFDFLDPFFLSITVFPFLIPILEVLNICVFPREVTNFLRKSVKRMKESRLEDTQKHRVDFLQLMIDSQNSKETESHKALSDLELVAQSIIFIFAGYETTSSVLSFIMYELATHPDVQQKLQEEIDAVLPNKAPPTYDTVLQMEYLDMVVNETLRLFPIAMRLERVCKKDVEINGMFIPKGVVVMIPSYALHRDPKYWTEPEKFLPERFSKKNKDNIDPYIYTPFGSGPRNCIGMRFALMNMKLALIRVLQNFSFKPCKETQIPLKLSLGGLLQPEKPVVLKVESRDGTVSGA
T2 sequence (P00388 2-678, further chain): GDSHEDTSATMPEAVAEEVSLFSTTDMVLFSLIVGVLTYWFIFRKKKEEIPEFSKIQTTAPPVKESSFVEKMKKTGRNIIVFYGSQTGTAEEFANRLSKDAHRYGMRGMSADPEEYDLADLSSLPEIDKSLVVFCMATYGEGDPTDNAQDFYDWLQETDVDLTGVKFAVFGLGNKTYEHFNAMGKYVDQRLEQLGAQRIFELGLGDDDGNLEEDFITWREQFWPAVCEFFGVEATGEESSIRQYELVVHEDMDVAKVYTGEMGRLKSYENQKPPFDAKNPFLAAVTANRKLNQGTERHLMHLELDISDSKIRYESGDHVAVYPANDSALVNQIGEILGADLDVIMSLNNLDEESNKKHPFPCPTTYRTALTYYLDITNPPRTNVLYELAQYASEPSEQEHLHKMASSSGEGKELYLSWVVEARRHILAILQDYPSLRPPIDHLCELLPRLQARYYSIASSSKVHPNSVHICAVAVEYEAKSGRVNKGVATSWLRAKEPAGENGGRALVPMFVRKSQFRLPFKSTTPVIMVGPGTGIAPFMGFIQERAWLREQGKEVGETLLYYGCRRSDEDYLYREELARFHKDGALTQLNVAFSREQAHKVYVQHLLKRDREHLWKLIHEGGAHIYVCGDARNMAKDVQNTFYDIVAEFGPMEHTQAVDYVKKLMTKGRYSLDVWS

IC50 (HMG-CoA reductase) [µM] | SMILES | hydroxylation by recombinant CYP3A4 membranes, HPLC and LC-MS (turnover rate) (CYP3A4)
285 | C[C@H]1C=CC2=C[C@H](CO)C[C@H](O)[C@@H]2[C@H]1CC[C@@H]1C[C@@H](O)CC(=O)O1 [6′a-hydroxymethyl monacolin J] | –
– | C[C@H]1C=C2C=C[C@H](C)[C@H](CC[C@@H]3C[C@@H](O)CC(=O)O3)[C@H]2[C@@H](O)C1 [monacolin J] | 0.040 nmol product min^−1 nmol P450^−1
